{"source": "patent US20240166626A1", "about": "“Compounds and Methods for Preventing, Treating, or Ameliorating Airway Disease” (THOMAS JEFFERSON UNIVERSITY, priority 2021, published 2024)", "target": "T1, GRK2 (Homo sapiens, UniProt P25098)", "T1 sequence (P25098 1-689)": "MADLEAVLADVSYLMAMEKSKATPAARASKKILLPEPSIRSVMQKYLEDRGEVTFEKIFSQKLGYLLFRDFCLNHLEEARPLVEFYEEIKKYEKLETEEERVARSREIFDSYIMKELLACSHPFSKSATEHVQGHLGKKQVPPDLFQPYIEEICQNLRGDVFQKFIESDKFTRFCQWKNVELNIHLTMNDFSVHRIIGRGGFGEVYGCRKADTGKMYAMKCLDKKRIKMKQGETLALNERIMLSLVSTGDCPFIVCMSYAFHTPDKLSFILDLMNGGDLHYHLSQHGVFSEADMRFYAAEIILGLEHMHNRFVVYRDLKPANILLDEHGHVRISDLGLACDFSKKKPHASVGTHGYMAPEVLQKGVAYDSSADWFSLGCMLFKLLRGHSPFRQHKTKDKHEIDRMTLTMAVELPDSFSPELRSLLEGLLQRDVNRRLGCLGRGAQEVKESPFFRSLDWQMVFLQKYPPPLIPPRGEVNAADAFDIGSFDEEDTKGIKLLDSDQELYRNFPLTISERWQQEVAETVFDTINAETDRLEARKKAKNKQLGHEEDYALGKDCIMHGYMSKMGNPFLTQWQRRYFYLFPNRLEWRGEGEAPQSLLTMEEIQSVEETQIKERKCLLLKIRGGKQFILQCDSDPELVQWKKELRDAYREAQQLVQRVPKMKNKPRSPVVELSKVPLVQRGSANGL", "assay": "In vitro tubulin phosphorylation assay with purified GRK2", "format": "biochemical", "conditions": "10 μM DFPQ, 60-minute time course, FIG. 3C", "method": "FIGS. 3A-3D: DFPQ inhibits GRK-mediated phosphorylation of the β2AR. FIG. 3A: Representative time course of agonist promoted phosphorylation of the β2AR. […] Cells were lysed and the FLAG-β2AR was immunoprecipitated. Phosphorylation at […] and 356 was analyzed by western blot using a pSer^355/356 antibody while total β2AR was measured using a β2AR C-terminal antibody. The western blot is representative of at least 3 experiments and is quantified in FIG. 3B. FIG. 3C: […] FIG. 3D: Bar graphs represent pixel densitometry of radiolabeled tubulin at the 60 min timepoint from 4 experiments. […]® ADRB2 cells (DiscoveRx) were maintained with the AssayCompleteTM Cell Culture kit (DiscoveRx catalog #92-[…]). […] Cells were read every three minutes for 18 minutes on a PolarStar Optima plate reader (BMG) to establish peak signal. […] Luminescence was determined at room temperature (23-25° C.) on a PolarStar Optima plate reader (BMG). […] Relative assay bias was calculated from the ratio of normalized cAMP and arrestin recruitment responses. […] BRET was measured using a Tecan Infinite F500 microplate reader. […] Bound [35 S]GTPγS was collected by rapid filtration on GF/B filters, washed 4 times with 4 ml of cold GTPγS wash buffer and analyzed by liquid scintillation counting. […] Immunoprecipitated proteins were separated by SDS-PAGE and analyzed by western blot using a β2AR C-terminal tail or phospho-specific antibody. […]"}
{"smiles": "Fc1ccc(Nc2nc(NC3CCCCC3)c3ccccc3n2)cc1F", "note": "[DFPQ, N^4-cyclohexyl-N^2-(3,4-difluorophenyl)quinazoline-2,4-diamine]", "values": [{"measurement": "phosphorylation of tubulin by GRK2", "value": "unaffected"}]}
